Laboratory results as given in patent publication EP0745599A2, “1-(3-Heterocyclylphenyl)-s-triazine-2,4,6-oxo or thiotrione herbicidal agents” (American Cyanamid Company, priority 1995, dated 1996).

Legend:
Assay type in all cases: in vivo
Conditions in all cases: rated four to five weeks after treatment
CASSIA OBTUSIFOLIA, L. [1] = assay: Preemergence herbicidal evaluation, CASOB (Sicklepod)
In short: (§1)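 Compound applied preemergence at about 0.125 to 0.50 kg per hectare as an aqueous acetone spray; response scored visually on a 0-9 scale after four to five weeks.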

CHENOPODIUM ALBUM, L. = assay: Preemergence herbicidal evaluation, CHEAL (Lambsquarters, Common)
In short: as §1

[2] = tested on: ECHINOCHLOA CRUS-GALLI, (L) BEAU; assay: Preemergence herbicidal evaluation, ECHCG (Barnyardgrass)
In short: as §1

[3] = tested on: SETARIA VIRIDIS, (L) BEAU; assay: Preemergence herbicidal evaluation, SETVI (Foxtail, Green)
In short: as §1

[4] = tested on: ORYZA SATIVA, L. TEBONNET; assay: Postemergence herbicidal evaluation, ORYSAT (Rice, Tebonnet)
Protocol: (§2) In the tests, seedling plants are grown in jiffy flats for about two weeks. The test compounds are dispersed in 50/50 acetone/water mixtures containing 0.5% TWEEN®20, a polyoxyethylene sorbitan monolaurate surfactant of Atlas Chemical Industries, in sufficient quantities to provide the equivalent of about 0.125 kg to 0.500 kg per hectare of active compound when applied to the plants through a spray nozzle operating at 40 psi for a predetermined time. After spraying, the plants are placed on greenhouse benches and are cared for in the usual manner, commensurate with conventional greenhouse practices. From four to five weeks after treatment, the seedling plants are examined and rated according to the rating system set forth below. Where more than one test is involved for a given compound, the data are averaged.
(§3) Results of herbicide evaluation are expressed on a rating scale (0-9). The scale is based upon a visual observation of plant stand, vigor, malformation, size, chlorosis and overall plant appearance as compared with a control.

[5] = tested on: ORYZA SATIVA, L. TEBONNET; assay: Preemergence herbicidal evaluation, ORYSAT (Rice, Tebonnet)
In short: as §1

[6] = tested on: ECHINOCHLOA CRUS-GALLI, (L) BEAU; assay: Postemergence herbicidal evaluation, ECHCG (Barnyardgrass)
In short: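 Visual 0–9 ratings against untreated control, taken four to five weeks post-spray, score stand, vigor, malformation, size, chlorosis and overall appearance. Treatment was a postemergence spray at about 0.125 to 0.500 kg/ha on roughly two-week-old seedlings.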

IPOMOEA SPP. = assay: Preemergence herbicidal evaluation, IPOSS (Morningglory Spp.)
In short: as §1

[7] = tested on: TRITICUM AESTIVUM, CV. APOLLO; assay: Preemergence herbicidal evaluation, TRZAWO (Wheat, Winter, CV. APOLLO)
In short: as §1

[8] = tested on: TRITICUM AESTIVUM, CV. APOLLO; assay: Postemergence herbicidal evaluation, TRZAWO (Wheat, Winter, CV. APOLLO)
Protocol: as §2, §3

[9] = tested on: GLYCINE MAX(L)MERR. CV. WILLIAMS; assay: Preemergence herbicidal evaluation, GLXMAW (Soybean, Williams)
In short: as §1

[10] = tested on: SETARIA VIRIDIS, (L) BEAU; assay: Postemergence herbicidal evaluation, SETVI (Foxtail, Green)
Protocol: as §2, §3

GALIUM APARINE = assay: Preemergence herbicidal evaluation, GALAP (Galium)
In short: as §1

[11] = tested on: ABUTILON THEOPHRASTI, MEDIC.; assay: Preemergence herbicidal evaluation, ABUTH (Velvetleaf)
In short: as §1

[12] = tested on: AMBROSIA ARTEMISIIFOLIA, L.; assay: Preemergence herbicidal evaluation, AMBEL (Ragweed, Common)
In short: as §1

ZEA MAYS L. = assay: Preemergence herbicidal evaluation, ZEAMX (Corn, Field)
In short: as §1

CASSIA OBTUSIFOLIA, L. [13] = assay: Postemergence herbicidal evaluation, CASOB (Sicklepod)
Protocol: as §2, §3

For CCOC(=O)Cn1c(=O)n(CC(=O)OC(C)(C)C)c(=O)n(-c2ccc(F)c(N3C(=O)C4=C(CCCC4)C3=O)c2)c1=O [Compound 8, 5-[3-(1-Cyclohexene-1,2-dicarboximido)-4-fluorophenyl]dihydro-2,4,6-trioxo-s-tri-azine-1,3(2H,4H)-diacetic acid, 1-tert-butyl, ethyl ester], the “Herbicide rating (0-9) CASOB” value (CASSIA OBTUSIFOLIA, L. [1]; 0.125 kg/ha) was 0.0, the “Herbicide rating (0-9) CASOB” value (CASSIA OBTUSIFOLIA, L. [1]; 0.250 kg/ha) was 0.0 and the “Herbicide rating (0-9) CASOB” value (CASSIA OBTUSIFOLIA, L. [1]; 0.500 kg/ha) was 0.0. For the same compound, the “Herbicide rating (0-9) CHEAL” value (CHENOPODIUM ALBUM, L.; 0.125 kg/ha) was 0.0, the “Herbicide rating (0-9) CHEAL” value (CHENOPODIUM ALBUM, L.; 0.250 kg/ha) was 0.0 and the “Herbicide rating (0-9) CHEAL” value (CHENOPODIUM ALBUM, L.; 0.500 kg/ha) was 0.0. For the same compound, the “Herbicide rating (0-9) ECHCG” value ([2]; 0.125 kg/ha) was 0.0, the “Herbicide rating (0-9) ECHCG” value ([2]; 0.250 kg/ha) was 0.0 and the “Herbicide rating (0-9) ECHCG” value ([2]; 0.500 kg/ha) was 0.0. The “Herbicide rating (0-9) SETVI” value ([3]; 0.125 kg/ha) was 0.0, the “Herbicide rating (0-9) SETVI” value ([3]; 0.250 kg/ha) was 0.0 and the “Herbicide rating (0-9) SETVI” value ([3]; 0.500 kg/ha) was 0.0. The “Herbicide rating (0-9) ORYSAT” value ([4]; 0.125 kg/ha) was 1.5, the “Herbicide rating (0-9) ORYSAT” value ([4]; 0.250 kg/ha) was 1.5 and the “Herbicide rating (0-9) ORYSAT” value ([4]; 0.500 kg/ha) was 1.5. The “Herbicide rating (0-9) ORYSAT” value ([5]; 0.125 kg/ha) was 0.0, the “Herbicide rating (0-9) ORYSAT” value ([5]; 0.250 kg/ha) was 0.0 and the “Herbicide rating (0-9) ORYSAT” value ([5]; 0.500 kg/ha) was 0.0. For the same compound, the “Herbicide rating (0-9) ECHCG” value ([6]; 0.125 kg/ha) was 0.0, the “Herbicide rating (0-9) ECHCG” value ([6]; 0.250 kg/ha) was 0.0 and the “Herbicide rating (0-9) ECHCG” value ([6]; 0.500 kg/ha) was 0.0. The “Herbicide rating (0-9) IPOSS” value (IPOMOEA SPP.; 0.125 kg/ha) was 0.0, the “Herbicide rating (0-9) IPOSS” value (IPOMOEA SPP.; 0.250 kg/ha) was 0.0 and the “Herbicide rating (0-9) IPOSS” value (IPOMOEA SPP.; 0.500 kg/ha) was 0.0. The “Herbicide rating (0-9) TRZAWO” value ([7]; 0.125 kg/ha) was 0.0, the “Herbicide rating (0-9) TRZAWO” value ([7]; 0.250 kg/ha) was 0.0 and the “Herbicide rating (0-9) TRZAWO” value ([7]; 0.500 kg/ha) was 0.0. For the same compound, the “Herbicide rating (0-9) TRZAWO” value ([8]; 0.125 kg/ha) was 0.5, the “Herbicide rating (0-9) TRZAWO” value ([8]; 0.250 kg/ha) was 0.5 and the “Herbicide rating (0-9) TRZAWO” value ([8]; 0.500 kg/ha) was 0.5. For the same compound, the “Herbicide rating (0-9) GLXMAW” value ([9]; 0.125 kg/ha) was 0.0, the “Herbicide rating (0-9) GLXMAW” value ([9]; 0.250 kg/ha) was 0.0 and the “Herbicide rating (0-9) GLXMAW” value ([9]; 0.500 kg/ha) was 0.0. For the same compound, the “Herbicide rating (0-9) SETVI” value ([10]; 0.125 kg/ha) was 0.0, the “Herbicide rating (0-9) SETVI” value ([10]; 0.250 kg/ha) was 0.0 and the “Herbicide rating (0-9) SETVI” value ([10]; 0.500 kg/ha) was 0.0. The “Herbicide rating (0-9) GALAP” value (GALIUM APARINE; 0.125 kg/ha) was 0.0, the “Herbicide rating (0-9) GALAP” value (GALIUM APARINE; 0.250 kg/ha) was 0.0 and the “Herbicide rating (0-9) GALAP” value (GALIUM APARINE; 0.500 kg/ha) was 0.0. For the same compound, the “Herbicide rating (0-9) ABUTH” value ([11]; 0.125 kg/ha) was 0.0, the “Herbicide rating (0-9) ABUTH” value ([11]; 0.250 kg/ha) was 0.0 and the “Herbicide rating (0-9) ABUTH” value ([11]; 0.500 kg/ha) was 0.0. For the same compound, the “Herbicide rating (0-9) AMBEL” value ([12]; 0.125 kg/ha) was 0.0, the “Herbicide rating (0-9) AMBEL” value ([12]; 0.250 kg/ha) was 0.0 and the “Herbicide rating (0-9) AMBEL” value ([12]; 0.500 kg/ha) was 0.0. The “Herbicide rating (0-9) ZEAMX” value (ZEA MAYS L.; 0.125 kg/ha) was 0.0, the “Herbicide rating (0-9) ZEAMX” value (ZEA MAYS L.; 0.250 kg/ha) was 0.0 and the “Herbicide rating (0-9) ZEAMX” value (ZEA MAYS L.; 0.500 kg/ha) was 0.0. The “Herbicide rating (0-9) CASOB” value (CASSIA OBTUSIFOLIA, L. [13]; 0.125 kg/ha) was 0.0, the “Herbicide rating (0-9) CASOB” value (CASSIA OBTUSIFOLIA, L. [13]; 0.250 kg/ha) was 0.0 and the “Herbicide rating (0-9) CASOB” value (CASSIA OBTUSIFOLIA, L. [13]; 0.500 kg/ha) was 0.0.
